Data from patent US20200138827A1, “SMALL MOLECULE MODULATORS OF HUMAN STING” (Curadev Pharma Limited, priority 2017, published 2020).

Target: T1, WT/R232 STING protein (Homo sapiens, UniProt Q86WV6, H232R)
T1 construct: host or cells: HEK293T
Assay: Luciferase reporter assay in HEK293T-hSTING-Luciferase cells, WT/R232
Format: cell-based
Settings: 20 hr stimulation, read-out: R232 Activity (EC50 range)
Excerpt: • a) Stable STING expressing cells—Stable HEK293T STING-expressing cell lines were generated using plasmids purchased from Invivogen, Calif., USA, that contain STING cDNA cloned into the pUNO-1 vector under hEF1-HTLV promoter and containing the Blasticidin selection cassette. The plasmids hSTING(R232), hSTING(H232), hSTING(HAQ) were directly procured from Invivogen while hSTING (AQ) and hSTING (Q) were derived from hSTING(HAQ) and hSTING (R232) plasmids respectively by using a PCR based site directed mutagenesis method. These vectors were individually transfected into HEK293T cells using Lipofectamine (Invitrogen) and transfected cells were selected under Blasticidin selection. These transfected cells were further subjected to clonal selection using the limiting dilution method to obtain clonally pure populations of HEK cells transfected with each of the above mentioned human STING variants. Only those clones were selected in which ligand independent activation of STING was minimal. • b) Stable Luciferase reporter gene expressing cells—Stable HEK293T Luciferase reporter gene expressing cell lines were generated using pCDNA4 plasmids under an IRF-inducible promoter. This promoter is comprised of five tandem interferon-stimulated response elements (ISRE) fused to an ISG54 minimal promoter. This vector was transfected into HEK293T cells using Lipofectamine (Invitrogen) and transfected cells were selected under Zeocin selection. These transfected cells were further subjected to clonal selection using the limiting dilution method to obtain clonally pure populations of HEK cells transfected the Luciferase reporter construct. Only those clones were selected in which ligand independent induction of luciferase was minimal.
5×10^5 clonally selected HEK293T-hSTING-Luciferase cells were seeded in 384-well plates in growth medium and stimulated with novel compounds. After 20 hr of stimulation supernatant were removed and secretary reporter gene activity were measured using the Quanti-Luc detection system (Invivogen) on a Spectramax i3X luminometer.
All compounds were first tested in a primary screen using WT/R232 STING protein to obtain a ‘fold-induction’ over baseline levels of protein activity.

T1 sequence (Q86WV6 whole entry H232R): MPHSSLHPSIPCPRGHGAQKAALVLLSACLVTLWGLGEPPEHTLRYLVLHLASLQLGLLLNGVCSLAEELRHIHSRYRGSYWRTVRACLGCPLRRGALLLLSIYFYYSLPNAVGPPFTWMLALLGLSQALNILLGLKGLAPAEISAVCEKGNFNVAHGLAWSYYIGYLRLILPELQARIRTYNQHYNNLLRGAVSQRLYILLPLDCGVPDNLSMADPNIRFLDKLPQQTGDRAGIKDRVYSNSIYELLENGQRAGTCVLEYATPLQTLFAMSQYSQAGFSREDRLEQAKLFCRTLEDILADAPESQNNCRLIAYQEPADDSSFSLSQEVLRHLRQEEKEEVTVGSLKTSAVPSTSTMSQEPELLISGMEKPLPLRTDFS

EC50	SMILES
> 10 µM	O=C(NCc1n[nH]c(=O)c2ccccc12)c1ccc2c(c1)N(Cc1ccccc1)C(=O)CS2 [Example 51, 4-benzyl-3-oxo-N-((4-oxo-3,4-dihydrophthalazin-1-yl)methyl)-3,4-dihydro-2H-benzo[b-1,4]thiazine-6-carboxamide]
> 10 µM	Nc1ccc(CNC(=O)c2ccc3c(c2)N(Cc2ccccc2)C(=O)CS3)cn1 [Example 52, N-((6-aminopyridin-3-yl)methyl)-4-benzyl-3-oxo-3,4-dihydro-2H-benzo[b-1,4]thiazine-6-carboxamide]
> 10 µM	CN(C)CC(NC(=O)c1ccc2c(c1)N(Cc1ccccc1)C(=O)CS2)c1ccccc1 (stereo not drawn) [Example 53, 4-benzyl-N-(2-(dimethylamino)-1-phenylethyl)-3-oxo-3,4-dihydro-2H-benzo[b-1,4]thiazine-6-carboxamide]
> 10 µM	O=C(NCc1ncccn1)c1ccc2c(c1)N(Cc1ccccc1)C(=O)CS2 [Example 54, 4-benzyl-3-oxo-N-(pyrimidin-2-ylmethyl)-3,4-dihydro-2H-benzo[b-1,4]thiazine-6-carboxamide]
> 10 µM	O=C(NCc1cccc(Cl)c1Cl)c1ccc2c(c1)N(Cc1ccccc1)C(=O)CS2 [Example 55, 4-benzyl-N-(2,3-dichlorobenzyl)-3-oxo-3,4-dihydro-2H-benzo[b-1,4]thiazine-6-carboxamide]
> 10 µM	N#CCN(Cc1ccccc1)C(=O)c1ccc2c(c1)N(Cc1ccccc1)C(=O)CS2 [Example 56, N,4-dibenzyl-N-(cyanomethyl)-3-oxo-3,4-dihydro-2H-benzo[b-1,4]thiazine-6-carboxamide]
> 10 µM	CC(NC(=O)c1ccc2c(c1)N(Cc1ccccc1)C(=O)CS2)c1ccc(S(C)(=O)=O)cc1 (stereo not drawn) [Example 57, 4-benzyl-N-(1-(4-(methylsulfonyl)phenyl)ethyl)-3-oxo-3,4-dihydro-2H-benzo[b-1,4]thiazine-6-carboxamide]
> 10 µM	O=C(NCc1cnccn1)c1ccc2c(c1)N(Cc1ccccc1)C(=O)CS2 [Example 58, 4-benzyl-3-oxo-N-(pyrazin-2-ylmethyl)-3,4-dihydro-2H-benzo[b-1,4]thiazine-6-carboxamide]
> 10 µM	O=C(NCc1ncco1)c1ccc2c(c1)N(Cc1ccccc1)C(=O)CS2 [Example 59, 4-benzyl-N-(oxazol-2-ylmethyl)-3-oxo-3,4-dihydro-2H-benzo[b-1,4]thiazine-6-carboxamide]
1 to 10 µM	O=C(NCc1ccsc1)c1ccc2c(c1)N(Cc1ccccc1)C(=O)CS2 [Example 61, 4-benzyl-3-oxo-N-(thiophen-3-ylmethyl)-3,4-dihydro-2H-benzo[b-1,4]thiazine-6-carboxamide]
1 to 10 µM	Cc1ccc(CNC(=O)c2ccc3c(c2)N(Cc2ccccc2)C(=O)CS3)o1 [Example 62, 4-benzyl-N-((5-methylfuran-2-yl)methyl)-3-oxo-3,4-dihydro-2H-benzo[b-1,4]thiazine-6-carboxamide]
> 10 µM	Cc1cnc(CNC(=O)c2ccc3c(c2)N(Cc2ccccc2)C(=O)CS3)o1 [Example 63, 4-benzyl-N-((5-methyloxazol-2-yl)methyl)-3-oxo-3,4-dihydro-2H-benzo[b-1,4]thiazine-6-carboxamide]
> 10 µM	Cc1cnc(CNC(=O)c2ccc3c(c2)N(Cc2ccccc2)C(=O)CS3)s1 [Example 64, 4-benzyl-N-((5-methylthiazol-2-yl)methyl)-3-oxo-3,4-dihydro-2H-benzo[b-1,4]thiazine-6-carboxamide]
> 10 µM	Cc1csc(CNC(=O)c2ccc3c(c2)N(Cc2ccccc2)C(=O)CS3)n1 [Example 65, 4-benzyl-N-((4-methylthiazol-2-yl)methyl)-3-oxo-3,4-dihydro-2H-benzo[b-1,4]thiazine-6-carboxamide]
1 to 10 µM	Cc1noc(CNC(=O)c2ccc3c(c2)N(Cc2ccccc2)C(=O)CS3)n1 [Example 66, 4-benzyl-N-((3-methyl-1,2,4-oxadiazol-5-yl)methyl)-3-oxo-3,4-dihydro-2H-benzo[b-1,4]thiazine-6-carboxamide]
> 10 µM	Cn1nccc1CNC(=O)c1ccc2c(c1)N(Cc1ccccc1)C(=O)CS2 [Example 67, 4-benzyl-N-((1-methyl-1H-pyrazol-5-yl)methyl)-3-oxo-3,4-dihydro-2H-benzo[b-1,4]thiazine-6-carboxamide]
> 10 µM	CC(NC(=O)c1ccc2c(c1)N(Cc1ccccc1)C(=O)CS2)c1ccco1 (stereo not drawn) [Example 68, 4-benzyl-N-(1-(furan-2-yl)ethyl)-3-oxo-3,4-dihydro-2H-benzo[b-1,4]thiazine-6-carboxamide]

EC50	SMILES
> 10 µM	O=C(NCc1coc2ccccc12)c1ccc2c(c1)N(Cc1ccccc1)C(=O)CS2 [Example 70, N-(benzofuran-3-ylmethyl)-4-benzyl-3-oxo-3,4-dihydro-2H-benzo[b-1,4]thiazine-6-carboxamide]
1 to 10 µM	N#Cc1ccc(CNC(=O)c2ccc3c(c2)N(Cc2ccccc2)C(=O)CS3)cc1 [Example 71, 4-benzyl-N-(4-cyanobenzyl)-3-oxo-3,4-dihydro-2H-benzo[b-1,4]thiazine-6-carboxamide]
> 10 µM	O=C(NCc1ccc(C(F)(F)F)cc1)c1ccc2c(c1)N(Cc1ccccc1)C(=O)CS2 [Example 72, 4-benzyl-3-oxo-N-(4-(trifluoromethyl)benzyl)-3,4-dihydro-2H-benzo[b-1,4]thiazine-6-carboxamide]
1 to 10 µM	O=C(NCc1ccc(Cl)cc1)c1ccc2c(c1)N(Cc1ccccc1)C(=O)CS2 [Example 73, 4-benzyl-N-(4-chlorobenzyl)-3-oxo-3,4-dihydro-2H-benzo[b-1,4]thiazine-6-carboxamide]
1 to 10 µM	O=C(NCc1ccc2ccccc2c1)c1ccc2c(c1)N(Cc1ccccc1)C(=O)CS2 [Example 74, 4-benzyl-N-(naphthalen-2-ylmethyl)-3-oxo-3,4-dihydro-2H-benzo[b-1,4]thiazine-6-carboxamide]
> 10 µM	O=C(NC1(c2ccccc2)CCCC1)c1ccc2c(c1)N(Cc1ccccc1)C(=O)CS2 [Example 75, 4-benzyl-3-oxo-N-(1-phenylcyclopentyl)-3,4-dihydro-2H-benzo[b-1,4]thiazine-6-carboxamide]
> 10 µM	Cc1cccc(CNC(=O)c2ccc3c(c2)N(Cc2ccccc2)C(=O)CS3)c1 [Example 76, 4-benzyl-N-(3-methylbenzyl)-3-oxo-3,4-dihydro-2H-benzo[b-1,4]thiazine-6-carboxamide]
> 10 µM	Cc1nc(CNC(=O)c2ccc3c(c2)N(Cc2ccccc2)C(=O)CS3)cs1 [Example 77, 4-benzyl-N-((2-methylthiazol-4-yl)methyl)-3-oxo-3,4-dihydro-2H-benzo[b-1,4]thiazine-6-carboxamide]
> 10 µM	CC(C)(NC(=O)c1ccc2c(c1)N(Cc1ccccc1)C(=O)CS2)c1ccccc1F [Example 78, 4-benzyl-N-(2-(2-fluorophenyl)propan-2-yl)-3-oxo-3,4-dihydro-2H-benzo[b-1,4]thiazine-6-carboxamide]
> 10 µM	O=C(NC(Cc1ccccc1)c1ccccc1)c1ccc2c(c1)N(Cc1ccccc1)C(=O)CS2 (stereo not drawn) [Example 79, 4-benzyl-N-(1,2-diphenylethyl)-3-oxo-3,4-dihydro-2H-benzo[b-1,4]thiazine-6-carboxamide]
> 10 µM	O=C(NCCC1CCCCC1)c1ccc2c(c1)N(Cc1ccccc1)C(=O)CS2 [Example 81, 4-benzyl-N-(2-cyclohexylethyl)-3-oxo-3,4-dihydro-2H-benzo[b-1,4]thiazine-6-carboxamide]
> 10 µM	Cc1noc(CN2C(=O)CSc3ccc(C(=O)NCc4ccco4)cc32)n1 [Example 84, N-(furan-2-ylmethyl)-4-((3-methyl-1,2,4-oxadiazol-5-yl)methyl)-3-oxo-3,4-dihydro-2H-benzo[b-1,4]thiazine-6-carboxamide]
> 10 µM	Cc1cc(CN2C(=O)CSc3ccc(C(=O)NCc4ccco4)cc32)no1 [Example 85, N-(furan-2-ylmethyl)-4-((5-methylisoxazol-3-yl)methyl)-3-oxo-3,4-dihydro-2H-benzo[b-1,4]thiazine-6-carboxamide]
> 10 µM	NC(=O)c1cccc(CN2C(=O)CSc3ccc(C(=O)NCc4ccco4)cc32)c1 [Example 86, 4-(3-carbamoylbenzyl)-N-(furan-2-ylmethyl)-3-oxo-3,4-dihydro-2H-benzo[b-1,4]thiazine-6-carboxamide]
> 10 µM	O=C(NCc1ccco1)c1ccc2c(c1)N(Cc1cccc(OC(F)(F)F)c1)C(=O)CS2 [Example 88, N-(furan-2-ylmethyl)-3-oxo-4-(3-(trifluoromethoxy)benzyl)-3,4-dihydro-2H-benzo[b-1,4]thiazine-6-carboxamide]
> 10 µM	O=C(NCc1ccco1)c1ccc2c(c1)N(CCc1ccccc1Cl)C(=O)CS2 [Example 89, 4-(2-chlorophenethyl)-N-(furan-2-ylmethyl)-3-oxo-3,4-dihydro-2H-benzo[b-1,4]thiazine-6-carboxamide]
